Reference: US8530477B2, “Tropane urea derivatives, preparation thereof and therapeutic application thereof as modulators of the activity of 11betaHSD1” (Sanofi, priority 2008, dated 2013)

Assays:
[1] = target: T1, 11beta-HSD1 enzyme (Homo sapiens, UniProt P28845); test: SPA (Scintillation Proximity Assay) of in vitro inhibitory activity on 11beta-HSD1, 384-well format; type: biochemical; details: recombinant 11beta-HSD1 produced in yeast S. cerevisiae; 3H-cortisone, NADPH; cortisol formed; read-out: concentration which inhibits 50% of the activity of 11beta-HSD1 (IC50)
T1 construct: made in house; host or cells: Saccharomyces cerevisiae
Description: The compounds according to the invention were the subject of pharmacological assays for determining their inhibitory effect on the 11beta-HSD1 enzyme which is an enzyme involved in lipid metabolism or glucose metabolism.
These assays consisted in measuring the in vitro inhibitory activity of the compounds of the invention by means of an SPA (Scintillation Proximity Assay) in 384-well format. Recombinant 11beta-HSD1 protein was produced in the yeast S. cerevisiae. The reaction was carried out by incubating the enzyme in the presence of ^3H-cortisone and of NADPH, in the absence or presence of an increasing concentration of inhibitor. SPA beads coupled to an anti-mouse antibody, pre-incubated with an anti-cortisol antibody, made it possible to measure the amount of cortisol formed during the course of the reaction.
The inhibitory activity with respect to the 11beta-HSD1 enzyme is given by the concentration which inhibits 50% of the activity of 11beta-HSD1 (IC50).

[2] = target: T2, 11βHSD1 in the eyes (Homo sapiens, UniProt P28845); details: healthy volunteers; after seven days of treatment; cited from earlier work
T2 construct: host or cells: healthy volunteers (in vivo, eye)

[3] = target: T3, 11βHSD1 (Homo sapiens, UniProt P28845); details: slim volunteer patients and type 2 diabetics; cited from earlier work
[4] = target: T3, 11βHSD1; parameters: host or cells: healthy volunteers (in vivo, bone); details: healthy volunteers; cited from earlier work
[5] = target: T3, 11βHSD1; parameters: host or cells: elderly human individuals (in vivo); details: elderly individuals; cited from earlier work

T3 sequence (P28845 whole entry): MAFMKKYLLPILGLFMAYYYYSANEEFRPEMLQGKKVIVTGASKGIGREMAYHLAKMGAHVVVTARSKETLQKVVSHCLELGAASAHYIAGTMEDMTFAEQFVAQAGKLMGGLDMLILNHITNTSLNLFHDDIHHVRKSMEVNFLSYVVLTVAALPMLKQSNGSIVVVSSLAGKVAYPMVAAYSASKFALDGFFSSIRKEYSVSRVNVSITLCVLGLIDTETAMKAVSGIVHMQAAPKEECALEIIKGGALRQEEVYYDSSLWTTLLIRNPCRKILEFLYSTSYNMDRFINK
T1 sequence (P28845 whole entry, species assumed): as the sequence (P28845 whole entry) above
T2 sequence (P28845 whole entry): as above

Work on `CS(=O)(=O)N1CCN(c2ccc(OCC3CC4CCC(C3)N4C(=O)NC3C4CC5CC3CC(O)(C5)C4)cc2)CC1` (stereo not drawn) [Compound No. 17, endo-3-[4-(4-Methanesulfonylpiperazin-1-yl)phenoxymethyl]-8-azabicyclo-[3.2.1]octane-8-carboxylic acid (trans-5-hydroxyadamantan-2-yl)amide] yielded an IC50 [1] of 4 nM.

For `CC1(C)[C@@H](OC(=O)CCC(=O)O)CC[C@]2(C)[C@H]3C(=O)C=C4[C@@H]5C[C@@](C)(C(=O)O)CC[C@]5(C)CC[C@@]4(C)[C@]3(C)CC[C@@H]12` [carbenoxolone], the “IOP (intraocular pressure) reduced by” value [2] is listed as 18%, the insulin sensitivity [3] is listed as “improves insulin sensitivity” and the bone formation markers [4] is listed as “without any change”. The bone resorption markers [4] was “decrease” and the “verbal fluidity and verbal memory” value [5] was “improves verbal fluidity and verbal memory”.

`CS(=O)(=O)N1CCN(c2ccc(OC3CC4CCC(C3)N4C(=O)NC3C4CC5CC3CC(O)(C5)C4)cc2)CC1` (stereo not drawn) [compound 5, exo-3-[4-(4-Methanesulfonylpiperazin-1-yl)phenoxy]-8-azabicyclo-[3.2.1]octane-8-carboxylic acid (trans-5-hydroxyadamantan-2-yl)amide] showed an IC50 [1] of 10 nM.
